Experimental data as given in patent US12653873B2, “Peptide antigens and uses thereof” (HUMANITAS MIRASOLE S.P.A., priority 2019, dated 2026).

Experiments:
Format in all cases: in vivo, mouse
C57BL6/J mice [1] = assay: Immunization of healthy mice with single peptides in CFA/IFA, echocardiography; conditions: echocardiography at 2, 5 and 9 weeks after first subcutaneous injection; 100 μg peptide in CFA day 0, IFA boost day 21; vs CTR-
Procedure: C57BL6/J 8-week-old male mice were screened at baseline for heart functionality, via echocardiography, and randomly divided into 5 experimental groups. Mice belonging to control group (CTR−, only CFA) were injected subcutaneously (immunized, but without antigen: negative control) with 100 μl Complete Freud's Adjuvant (CFA) at day 0 and boosted with 100 μl of Incomplete Freud's Adjuvant (IFA) on day 21. Mice belonging to group 3 (CTR+) were injected subcutaneously (immunized, known antigen: positive control) with 100 μg of each of the three peptides (SEQ ID NOs. 15-17) derived from beta-adrenergic receptor and listed in the Table of FIG. 4, emulsified in Complete Freud's Adjuvant (CFA) at day 0 and boosted with 100 μg of the three peptides emulsified in Incomplete Freud's Adjuvant (IFA) on day 21. Mice belonging to group 4_A (Peptide 4_A) were injected subcutaneously (immunized) with 100 μg of the peptide of SEQ ID NO. 1, derived from 14-3-3 protein, emulsified in Complete Freud's Adjuvant (CFA) at day 0 and boosted with 100 μg of each of the three peptides emulsified in Incomplete Freud's Adjuvant (IFA) on day 21. Mice belonging to group 4_B (Peptide 4_B) were injected subcutaneously (immunized) with 100 μg of the peptide of SEQ ID NO. 5, derived from Snrpd1 protein, emulsified in Complete Freud's Adjuvant (CFA) at day 0 and boosted with 100 μg of each of the three peptides emulsified in Incomplete Freud's Adjuvant (IFA) on day 21. Mice belonging to group 4_C (Peptide 4_C) were injected subcutaneously (immunized) with 100 μg of the peptide of SEQ ID NO. 14, derived from Atp5o protein, emulsified in Complete Freud's Adjuvant (CFA) at day 0 and boosted with […] of each of the three peptides emulsified in Incomplete Freud's Adjuvant (IFA) on day 21. On day 0 and day 2, all the mice were intraperitoneally injected with 200 ng of Pertussis Toxin. Heart functionality of all mice was analyzed via echocardiography at 2, 5 and 9 weeks after the first subcutaneous injection. In FIG. 7, the results of echocardiography analysis of cardiac functionality parameters % FS and % EF of C57BL6/J mice immunized with the peptide of SEQ ID NO. 1 (14-3-3 protein), the peptide of SEQ ID NO. 5 (Snrpd1 protein), or the peptide of SEQ ID NO. 14 (Atp5o protein) are shown. […] Data are plotted as mean±SEM, (n=4-6). Two-way ANOVA and Tukey's multiple comparison test with matching subjects. * p<0.05, ** p<0.01, ***p<0.001.

C57BL6/J mice [2] = assay: Immunization of healthy mice with pooled peptides in CFA/IFA, echocardiography; conditions: echocardiography at 2, 5 and 9 weeks after first subcutaneous injection; 100 μg of each peptide in CFA day 0, IFA boost day 21; vs CTR- (only CFA)
Procedure: In order to validate the functional relevance of identified antigens recognized by T cells driving HF, the inventors conducted the experiments as described below and schematically represented in FIG. 5.
Briefly, C57BL6/J 8-week-old male mice were screened, via echocardiography, at baseline for heart functionality and randomly divided into three experimental groups. Mice belonging to the negative control group (CTR−, only CFA) were injected subcutaneously (immunized) with 100 μl Complete Freud's Adjuvant (CFA) at day 0 and boosted with 100 μl of Incomplete Freud's Adjuvant (IFA) on day 21, without any antigen. […] Heart functionality of all mice was analyzed via echocardiography at 2, 5 and 9 weeks after the first subcutaneous injection.
The immunization experiments of healthy mice with peptides derived from beta-adrenergic receptor and from 14-3-3, Snrpd1, and Atp5o lead to cardiac dysfunction. […] Left ventricle functionality was measured as % FS (FIG. 6A) and Ejection Fraction (% EF) (FIG. 6B), which measure the volumetric capacity of the left ventricle to pump blood. […]

[3] = system: Aldehyde dehydrogenase (ALDH); assay: Aldefluor FACS analysis of dendritic cells from mesenteric lymph nodes after oral tolerance induction; conditions: eight weeks after oral tolerance induction in TAC-operated mice; vs PBS alone
Procedure: Briefly, eight weeks after oral tolerance induction in TAC-operated mice, mesenteric lymph nodes (MLN) were collected and dendritic cells (DC) were isolated for FACS analysis. Aldehyde dehydrogenase (ALDH) production of retinoic acid from the DC was measured via Aldefluor Fluorescent dye. FACS analysis of DC isolated from MLN of mice fed with the peptides of SEQ ID NO. […] Retinoic acid produced by tolerogenic DC contributes to Regulatory T cell (Treg) generation, essential for tolerance induction. […] Data are plotted as mean±SEM, (n=7-8). Unpaired t-test. * p<0.05.

TAC-operated mice = assay: Oral tolerance protocol followed by induction of Heart Failure via TAC, echocardiography; conditions: oral gavage 0.8 mg per day of each peptide for 4 days, TAC on day 7; 8 weeks after surgery; vs PBS alone
Procedure: To assess preventive protection potential of oral tolerance with the newly identified peptides from the development of Heart Failure, the inventors pursued an oral tolerance protocol to induce cardio-specific tolerance for the peptides, followed by active induction of Heart Failure via TAC.
Briefly, C57BL6/J 8-week-old male mice were screened at baseline via echocardiography. Each mouse was orally fed with 0.8 mg of each peptide from group 4: the peptide of SEQ ID NO. 1 (14-3-3 protein), the peptide of SEQ ID NO. 5 (Snrpd1 protein), and the peptide of SEQ ID NO. 14 (Atp5o protein) (i.e. 0.8 mg per day of each peptide, thus 2.4 mg/day in total), diluted in 600 μl of Phosphate Buffered-Saline (PBS) or plain PBS (as control) via oral feeding (oral gavage) for 4 days in a row. Three days after the end of this procedure, on day 7, the mice underwent TAC surgery, to experimentally induce Heart Failure. Echocardiographies were performed on both groups of mice to monitor their cardiac functionality at 2, 4 and 8 weeks after TAC-surgery. […] Data were plotted as mean±SEM, (n=8-11). Two-way ANOVA and Tukey's multiple comparison test with matching subjects. ** p<0.01, ***p<0.001.

Substance | % EF (C57BL6/J mice [1]) | % FS (C57BL6/J mice [1]) | cardiac functionality, % FS (C57BL6/J mice [2]) | cardiac functionality, Ejection Fraction (% EF) (C57BL6/J mice [2]) | ALDH activity of DC isolated from MLN [3] | mean fluorescence intensity (MFI) of Aldefluor dye in DC [3] | percentage of ALDH positive DC [3] | cardiac functionality, % EF (TAC-operated mice) | cardiac functionality, % FS (TAC-operated mice)
Peptide 4_A: peptide of SEQ ID NO. 1, derived from 14-3-3 protein (LGLALNFSVFYYEIL; listed as Homo sapiens) | significantly reduced | significantly reduced |  |  |  |  |  |  | 
Group 4: combination of the three peptides of SEQ ID NOs. 1, 5 and 14, derived from murine 14-3-3, Snrpd1 and Atp5o proteins (chain 1 LGLALNFSVFYYEIL; chain 2 EPVQLETLSIRGNNIRYFILPDSLP; chain 3 LTANLMNLLAENGRL; listed as Homo sapiens, listed as Mus musculus) |  |  | significant reduction of cardiac functionality | significant reduction of cardiac functionality | significant increase in ALDH activity | significant increase | significant increase | significantly better cardiac functionality | significantly better cardiac functionality
Peptide 4_C: peptide of SEQ ID NO. 14, derived from mouse Atp5o protein (LTANLMNLLAENGRL; listed as Mus musculus) | significantly reduced | significantly reduced |  |  |  |  |  |  | 
Peptide 4_B: peptide of SEQ ID NO. 5, derived from Snrpd1 protein (EPVQLETLSIRGNNIRYFILPDSLP; listed as Homo sapiens) | significantly reduced | significantly reduced |  |  |  |  |  |  | 
